Test results as given in patent US20150018403A1, “FLUORENE-AMIDE COMPOUNDS AND PHARMACEUTICAL USE THEREOF” (JAPAN TOBACCO INC., priority 2013, published 2015).

Tests used:
[1] = target: T1, hERG current (hERG-transfected HEK293 cells) (Homo sapiens, UniProt Q12809); assay: hERG whole cell patch clamp test; assay type: cell-based; conditions: whole cell patch clamp, hERG-transfected HEK293 cells
T1 construct: host or cells: HEK293
Procedure: (§1) Using human ether-a-go-go related gene (hERG)-transfected HEK293 cells (Cytomyx Limited), an influence on hERG current was examined according to the whole cell patch clamp technique. The hERG-transfected HEK293 cells were passaged using a CO2 incubator (BNA-111, TABAI ESPEC CORP.) under the set conditions of 37° C., 5% CO2, saturated humidity. Culture containers used were Collagen Type I Coated 75 cm^2 flask (4123-010, AGC TECHNO GLASS CO., Ltd.) and Collagen Type I Coated 35 mm culture dish (4000-010, AGC TECHNO GLASS CO., Ltd.). The culture medium used was E-MEM (Eagle Minimum Essential Medium (Earle's Salts, Nikken biomedical laboratory) added with 10% FCS (Fetal bovine serum, BioWest, L.L.C.) and 1% MEM Non-Essential Amino Acids Solution (NEAA, Invitrogen Corporation). Geneticin for the selection of hERG gene expressing cells was added thereto to a concentration of 400 μg/mL. As the cells for the measurement, 3×10^4 hERG-transfected HEK293 cells were plated on a 35 mm culture dish 4 to 7 days before measurement of the hERG current. The culture dish produced for the measurement contained the above-mentioned culture medium without geneticin (Invitrogen Corporation).
(§2) The highest evaluation concentration of each compound was determined from the highest concentration at which precipitation was not found in the standard extracellular fluid (NaCl: 140 mmol/L, KCl: 2.5 mmol/L, MgCl2: 2 mmol/L, CaCl2: 2 mmol/L, HEPES: 10 mmol/L, glucose: 10 mmol/L (adjusted to pH 7.4 with Tris-base)). As the application method, each solution to be applied was ejected from a Y-tube having a tip diameter of about 0.25 mm, which was adjacent (about 2 mm) to the cells, and applied to the cells. The ejection rate was about 0.4 mL/min.
(§3) The experiment was performed at room temperature under a phase contrast microscope. The 35 mm culture dish plated with the cells was set on a measurement apparatus, and the standard extracellular fluid was continuously applied to the cells from the Y-tube. A glass electrode for the measurement was filled with an intracellular fluid (Potassium Gluconate: 130 mmol/L, KCl: 20 mmol/L, MgCl2: 1 mmol/L, ATP-Mg: 5 mmol/L, EGTA: 3.5 mmol/L, HEPES: 10 mmol/L (adjusted to pH 7.2 with Tris-base)). A conventional whole cell patch clamp method was applied to the cells, and the maintenance electric potential was set to −80 mV. Under a fixed electric potential, the whole cell current was amplified by an amplifier for patch clamp (AXOPATCH-200B, Axon Instruments, Inc.), and the data was loaded into a computer (IMC-P642400, Intermedical Co., Ltd.) using a data acquisition analysis software (pCLAMP 9.2, Axon Instruments, Inc.).
(§4) The measurement of the hERG current was performed in the following two steps. In both cases, the hERG current was initiated by giving a command potential (maintenance electric potential −80 mV, prepulse+20 mV, 1.5 sec, test-pulse −50 mV, 1.5 sec).
(§5) Step (1): The above-mentioned command potential was given at 0.1 Hz for 2 min.
(§6) Step (2): The above-mentioned command potential was subjected to P/3 subtraction of pCLAMP 9.2 to remove leak current. This was repeated three times and an average thereof was taken as hERG current.
(§7) Subsequent to step (1), Step (2) was performed (about 3 min), and the maximum tail current obtained by applying a test-pulse to the hERG current obtained by the method of step (2) was taken as hERG current value. Hereafter, the operations of (1) and (2) were alternately repeated until completion of the experiment and the hERG current value was measured.
(§8) Stable hERG current value was recorded three times (about 10 min), and the standard extracellular fluid was instantaneously exchanged with each application fluid. The hERG current value was measured three times (about 10 min) in the same manner during perfusion of the application fluid, and the current value obtained by the 3rd measurement was taken as hERG current value after perfusion of the application fluid. […]

[2] = target: T2, hERG (Homo sapiens, UniProt Q12809); assay: hERG whole cell patch clamp test; assay type: cell-based; conditions: human, HEK293 cells transfected with hERG, pH 7.4, read-out: hERG inhibition rate (%); for inhibition at 10 μmol/L: concentration 10 μmol/L
T2 construct: host or cells: HEK293
Procedure: as §1, §2, §3, §4, §5, §6, §7, §8

T2 sequence (Q12809 whole entry): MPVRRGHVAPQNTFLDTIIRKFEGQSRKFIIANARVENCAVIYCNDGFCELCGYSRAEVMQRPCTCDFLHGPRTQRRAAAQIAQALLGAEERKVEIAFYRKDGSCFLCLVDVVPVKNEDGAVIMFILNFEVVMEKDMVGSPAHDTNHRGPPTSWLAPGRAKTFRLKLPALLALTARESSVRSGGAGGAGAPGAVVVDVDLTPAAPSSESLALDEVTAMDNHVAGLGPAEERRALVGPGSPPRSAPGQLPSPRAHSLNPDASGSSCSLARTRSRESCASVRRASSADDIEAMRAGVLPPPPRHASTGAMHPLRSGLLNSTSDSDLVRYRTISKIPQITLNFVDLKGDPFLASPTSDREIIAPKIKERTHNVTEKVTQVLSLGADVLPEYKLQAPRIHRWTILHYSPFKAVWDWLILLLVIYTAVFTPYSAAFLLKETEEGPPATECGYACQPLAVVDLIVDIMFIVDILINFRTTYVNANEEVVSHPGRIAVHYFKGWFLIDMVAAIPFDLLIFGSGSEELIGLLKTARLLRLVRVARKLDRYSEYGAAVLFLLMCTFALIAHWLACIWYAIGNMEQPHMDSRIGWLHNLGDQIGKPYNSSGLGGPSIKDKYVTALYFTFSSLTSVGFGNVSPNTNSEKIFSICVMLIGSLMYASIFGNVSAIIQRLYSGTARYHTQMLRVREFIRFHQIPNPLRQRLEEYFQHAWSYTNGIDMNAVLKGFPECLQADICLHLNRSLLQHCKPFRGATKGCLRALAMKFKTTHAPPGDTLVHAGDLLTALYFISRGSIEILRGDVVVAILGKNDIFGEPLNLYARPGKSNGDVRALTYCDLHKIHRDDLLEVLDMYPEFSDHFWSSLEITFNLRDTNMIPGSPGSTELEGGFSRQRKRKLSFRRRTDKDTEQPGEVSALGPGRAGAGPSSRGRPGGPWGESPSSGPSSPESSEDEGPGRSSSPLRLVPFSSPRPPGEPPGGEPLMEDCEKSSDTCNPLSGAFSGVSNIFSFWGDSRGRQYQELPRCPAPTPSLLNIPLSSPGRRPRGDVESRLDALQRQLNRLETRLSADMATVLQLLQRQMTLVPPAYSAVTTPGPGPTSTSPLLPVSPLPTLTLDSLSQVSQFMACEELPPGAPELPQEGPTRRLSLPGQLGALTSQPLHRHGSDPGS
T1 sequence (Q12809 whole entry): as above

SMILES	IC50 [1] [µM]	inhibition at 1 μmol/L ([2]; concentration 1 μmol/L) [%]	inhibition at 10 μmol/L [2] [%]	inhibition at 100 μmol/L ([2]; concentration 100 μmol/L) [%]
Cn1cc(-c2cc(OCC(C)(C)O)cc3c2-c2ccccc2[C@]3(O)C(F)(F)F)cn1 [compound (B), (9R)-2-(2-Hydroxy-2-methylpropoxy)-4-(1-methyl-1H-pyrazol-4-yl)-9-(trifluoromethyl)-9H-fluoren-9-ol, reference compound]	3.6	17.4	72.9	
C[C@H](O)COc1cc(-c2cnn(C(C)(C)C(N)=O)c2)c2c(c1)[C@@](O)(C(F)(F)F)c1ccccc1-2 [compound (2), 2-(4-{(9R)-9-hydroxy-2-[(2S)-2-hydroxypropoxy]-9-(trifluoromethyl)-9H-fluoren-4-yl}-1H-pyrazol-1-yl)-2-methylpropanamide]	58.8		7.5	62.9
